Reference: the kinase profiling compilation of Christmann-Franck et al. (2016)

Columns and labels:
Assay in all cases: split-luciferase competition binding
RPS6KA3 KD1 (human) = RPS6KA3 KD1 (human) (UniProt P51812); conditions: compound 10.0 µM
SGK3 (human) = SGK3 (human) (UniProt Q96BR1); conditions: compound 10.0 µM
AURKB (human) = AURKB (human) (UniProt Q96GD4); conditions: compound 10.0 µM
PRKACA (mouse) = conditions: compound 10.0 µM; accession and sequence are those of the human protein
PRKACB (human) = PRKACB (human) (UniProt P22694); conditions: compound 10.0 µM
RPS6KA4 KD1 (human) = RPS6KA4 KD1 (human) (UniProt O75676); conditions: compound 10.0 µM
STK32B (human) = STK32B (human) (UniProt Q9NY57); conditions: compound 10.0 µM
PRKCH (human) = PRKCH (human) (UniProt P24723); conditions: compound 10.0 µM
PRKCQ (human) = PRKCQ (human) (UniProt Q04759); conditions: compound 10.0 µM
PKN1 (human) = PKN1 (human) (UniProt Q16512); conditions: compound 10.0 µM
PRKCE (human) = PRKCE (human) (UniProt Q02156); conditions: compound 10.0 µM
PRKCI (human) = PRKCI (human) (UniProt P41743); conditions: compound 10.0 µM
RPS6KA1 KD1 (human) = RPS6KA1 KD1 (human) (UniProt Q15418); conditions: compound 10.0 µM
PRKX (human) = PRKX (human) (UniProt P51817); conditions: compound 10.0 µM
RPS6KA2 KD1 (human) = RPS6KA2 KD1 (human) (UniProt Q15349); conditions: compound 10.0 µM
DMPK (human) = DMPK (human) (UniProt Q09013); conditions: compound 10.0 µM
AURKA (human) = AURKA (human) (UniProt O14965); conditions: compound 10.0 µM
RPS6KA5 KD1 (human) = RPS6KA5 KD1 (human) (UniProt O75582); conditions: compound 10.0 µM
SGK2 (human) = SGK2 (human) (UniProt Q9HBY8); conditions: compound 10.0 µM
PRKCG (human) = PRKCG (human) (UniProt P05129); conditions: compound 10.0 µM
AURKC (human) = AURKC (human) (UniProt Q9UQB9); conditions: compound 10.0 µM
PRKCD (human) = PRKCD (human) (UniProt Q05655); conditions: compound 10.0 µM
AKT2 (human) = AKT2 (human) (UniProt P31751); conditions: compound 10.0 µM
RPS6KA6 KD1 (human) = RPS6KA6 KD1 (human) (UniProt Q9UK32); conditions: compound 10.0 µM
PDPK1 (human) = PDPK1 (human) (UniProt O15530); conditions: compound 10.0 µM
AKT3 (human) = AKT3 (human) (UniProt Q9Y243); conditions: compound 10.0 µM
AKT1 (human) = AKT1 (human) (UniProt P31749); conditions: compound 10.0 µM

Sequence of RPS6KA6 KD1 (human) (Q9UK32 whole entry, looked up): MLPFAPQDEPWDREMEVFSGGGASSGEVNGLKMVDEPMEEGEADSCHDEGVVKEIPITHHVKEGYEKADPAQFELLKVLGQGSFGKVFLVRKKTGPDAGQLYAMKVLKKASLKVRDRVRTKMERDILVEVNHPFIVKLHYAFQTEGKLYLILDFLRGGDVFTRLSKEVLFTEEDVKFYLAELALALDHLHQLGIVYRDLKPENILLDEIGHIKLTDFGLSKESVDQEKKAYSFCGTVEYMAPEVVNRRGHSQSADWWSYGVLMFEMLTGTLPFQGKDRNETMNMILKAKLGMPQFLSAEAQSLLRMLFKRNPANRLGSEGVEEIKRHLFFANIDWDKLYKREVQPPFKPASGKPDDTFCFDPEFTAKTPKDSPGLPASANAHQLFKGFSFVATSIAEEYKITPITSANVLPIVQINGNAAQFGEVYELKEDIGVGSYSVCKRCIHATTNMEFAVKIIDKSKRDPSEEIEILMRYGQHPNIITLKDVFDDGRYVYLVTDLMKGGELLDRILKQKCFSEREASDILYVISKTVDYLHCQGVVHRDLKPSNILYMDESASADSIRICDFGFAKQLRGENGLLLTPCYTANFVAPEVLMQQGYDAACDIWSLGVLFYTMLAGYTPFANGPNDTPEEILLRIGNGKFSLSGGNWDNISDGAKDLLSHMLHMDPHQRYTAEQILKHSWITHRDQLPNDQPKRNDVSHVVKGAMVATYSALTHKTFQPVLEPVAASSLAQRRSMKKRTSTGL
Sequence of AKT2 (human) (P31751 whole entry, looked up): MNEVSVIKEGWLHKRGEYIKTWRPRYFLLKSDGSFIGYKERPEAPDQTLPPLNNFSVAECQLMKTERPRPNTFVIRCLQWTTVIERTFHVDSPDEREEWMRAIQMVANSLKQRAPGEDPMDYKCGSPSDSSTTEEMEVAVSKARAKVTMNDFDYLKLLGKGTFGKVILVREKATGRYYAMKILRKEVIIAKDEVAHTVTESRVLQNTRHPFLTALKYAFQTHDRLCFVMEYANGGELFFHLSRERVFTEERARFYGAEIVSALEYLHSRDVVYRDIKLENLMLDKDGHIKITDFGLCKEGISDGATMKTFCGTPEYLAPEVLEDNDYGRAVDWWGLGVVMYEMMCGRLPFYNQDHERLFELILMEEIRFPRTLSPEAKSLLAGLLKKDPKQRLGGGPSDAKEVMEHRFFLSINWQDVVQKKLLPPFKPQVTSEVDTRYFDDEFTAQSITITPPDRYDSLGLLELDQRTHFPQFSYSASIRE
Sequence of PRKCH (human) (P24723 whole entry, looked up): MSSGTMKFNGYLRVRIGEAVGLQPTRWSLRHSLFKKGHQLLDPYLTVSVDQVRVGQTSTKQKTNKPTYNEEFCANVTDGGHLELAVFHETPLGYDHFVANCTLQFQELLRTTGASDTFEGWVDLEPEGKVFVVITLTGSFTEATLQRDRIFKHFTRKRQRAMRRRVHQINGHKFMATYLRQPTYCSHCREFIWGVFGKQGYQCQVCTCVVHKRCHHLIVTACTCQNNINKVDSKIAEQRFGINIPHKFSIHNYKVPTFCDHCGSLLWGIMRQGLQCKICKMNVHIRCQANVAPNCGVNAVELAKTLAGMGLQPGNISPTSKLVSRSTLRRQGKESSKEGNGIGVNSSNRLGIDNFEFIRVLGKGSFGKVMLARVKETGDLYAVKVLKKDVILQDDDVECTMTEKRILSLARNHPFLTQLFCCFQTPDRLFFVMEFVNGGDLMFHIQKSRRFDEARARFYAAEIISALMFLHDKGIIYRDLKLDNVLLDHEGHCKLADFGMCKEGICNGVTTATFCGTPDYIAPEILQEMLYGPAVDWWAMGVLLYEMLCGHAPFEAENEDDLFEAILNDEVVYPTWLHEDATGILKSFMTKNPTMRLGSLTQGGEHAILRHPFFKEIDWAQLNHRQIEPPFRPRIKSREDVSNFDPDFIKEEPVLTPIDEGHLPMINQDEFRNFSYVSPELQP
Sequence of RPS6KA5 KD1 (human) (O75582 whole entry, looked up): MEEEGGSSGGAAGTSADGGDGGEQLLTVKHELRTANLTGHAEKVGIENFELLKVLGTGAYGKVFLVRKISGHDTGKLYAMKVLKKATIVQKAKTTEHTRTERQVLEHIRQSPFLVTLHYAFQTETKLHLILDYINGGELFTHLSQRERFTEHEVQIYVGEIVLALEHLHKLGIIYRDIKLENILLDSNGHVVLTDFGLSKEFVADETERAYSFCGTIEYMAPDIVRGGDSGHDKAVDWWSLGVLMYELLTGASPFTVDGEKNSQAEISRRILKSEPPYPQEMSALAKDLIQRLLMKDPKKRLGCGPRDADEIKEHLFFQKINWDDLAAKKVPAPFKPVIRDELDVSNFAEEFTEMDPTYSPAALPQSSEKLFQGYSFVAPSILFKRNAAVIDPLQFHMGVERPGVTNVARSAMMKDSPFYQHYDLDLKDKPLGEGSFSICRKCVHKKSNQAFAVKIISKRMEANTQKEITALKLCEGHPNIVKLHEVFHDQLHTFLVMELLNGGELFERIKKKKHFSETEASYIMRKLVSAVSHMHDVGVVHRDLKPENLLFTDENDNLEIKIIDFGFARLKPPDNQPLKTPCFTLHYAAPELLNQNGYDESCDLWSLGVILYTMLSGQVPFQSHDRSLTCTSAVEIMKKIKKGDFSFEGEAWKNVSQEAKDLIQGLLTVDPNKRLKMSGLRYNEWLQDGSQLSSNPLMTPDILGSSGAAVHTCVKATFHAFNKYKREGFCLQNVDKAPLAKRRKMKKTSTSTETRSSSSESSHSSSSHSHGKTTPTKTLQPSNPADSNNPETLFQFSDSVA
Sequence of SGK2 (human) (Q9HBY8 whole entry, looked up): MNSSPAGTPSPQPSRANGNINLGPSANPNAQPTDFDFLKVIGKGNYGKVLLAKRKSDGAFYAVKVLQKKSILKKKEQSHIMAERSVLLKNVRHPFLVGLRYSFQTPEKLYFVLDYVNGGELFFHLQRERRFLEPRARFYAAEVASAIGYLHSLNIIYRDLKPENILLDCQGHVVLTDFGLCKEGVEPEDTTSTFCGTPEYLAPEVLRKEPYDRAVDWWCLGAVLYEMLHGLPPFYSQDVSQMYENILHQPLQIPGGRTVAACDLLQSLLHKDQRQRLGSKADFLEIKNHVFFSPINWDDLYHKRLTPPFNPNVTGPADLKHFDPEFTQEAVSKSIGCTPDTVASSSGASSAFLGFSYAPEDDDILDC
Sequence of SGK3 (human) (Q96BR1 whole entry, looked up): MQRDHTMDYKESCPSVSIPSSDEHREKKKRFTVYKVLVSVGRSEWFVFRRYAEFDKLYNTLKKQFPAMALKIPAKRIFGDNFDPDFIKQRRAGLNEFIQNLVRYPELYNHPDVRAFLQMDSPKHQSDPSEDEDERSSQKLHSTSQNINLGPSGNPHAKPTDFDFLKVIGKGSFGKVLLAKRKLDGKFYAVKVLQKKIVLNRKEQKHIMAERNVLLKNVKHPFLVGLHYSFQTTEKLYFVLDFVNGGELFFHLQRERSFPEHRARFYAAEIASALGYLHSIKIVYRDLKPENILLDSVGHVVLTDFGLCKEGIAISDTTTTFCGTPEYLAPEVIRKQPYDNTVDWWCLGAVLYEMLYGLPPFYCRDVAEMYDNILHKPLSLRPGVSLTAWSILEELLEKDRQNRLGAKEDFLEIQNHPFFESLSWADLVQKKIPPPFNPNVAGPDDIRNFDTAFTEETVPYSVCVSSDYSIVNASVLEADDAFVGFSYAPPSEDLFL
Sequence of RPS6KA4 KD1 (human) (O75676 whole entry, looked up): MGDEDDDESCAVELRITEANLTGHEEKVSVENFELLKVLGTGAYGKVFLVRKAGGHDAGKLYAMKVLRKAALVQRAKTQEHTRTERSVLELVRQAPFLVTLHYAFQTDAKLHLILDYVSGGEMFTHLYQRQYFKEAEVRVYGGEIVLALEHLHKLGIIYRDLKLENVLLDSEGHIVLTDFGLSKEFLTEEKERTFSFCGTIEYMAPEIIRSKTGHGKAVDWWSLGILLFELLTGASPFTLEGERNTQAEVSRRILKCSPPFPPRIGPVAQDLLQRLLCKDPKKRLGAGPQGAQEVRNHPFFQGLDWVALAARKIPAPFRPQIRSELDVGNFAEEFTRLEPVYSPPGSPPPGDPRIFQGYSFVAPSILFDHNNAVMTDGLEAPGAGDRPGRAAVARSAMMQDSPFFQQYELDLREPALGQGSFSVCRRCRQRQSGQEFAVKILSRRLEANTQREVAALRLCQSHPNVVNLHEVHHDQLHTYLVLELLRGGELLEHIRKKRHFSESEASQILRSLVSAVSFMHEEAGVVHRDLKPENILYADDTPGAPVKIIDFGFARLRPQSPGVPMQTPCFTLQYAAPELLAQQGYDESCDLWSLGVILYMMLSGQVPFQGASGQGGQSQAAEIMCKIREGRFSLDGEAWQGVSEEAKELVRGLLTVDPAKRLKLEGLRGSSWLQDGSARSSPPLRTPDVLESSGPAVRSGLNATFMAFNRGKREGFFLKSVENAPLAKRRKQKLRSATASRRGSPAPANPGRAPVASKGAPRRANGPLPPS
Sequence of PRKX (human) (P51817 whole entry, looked up): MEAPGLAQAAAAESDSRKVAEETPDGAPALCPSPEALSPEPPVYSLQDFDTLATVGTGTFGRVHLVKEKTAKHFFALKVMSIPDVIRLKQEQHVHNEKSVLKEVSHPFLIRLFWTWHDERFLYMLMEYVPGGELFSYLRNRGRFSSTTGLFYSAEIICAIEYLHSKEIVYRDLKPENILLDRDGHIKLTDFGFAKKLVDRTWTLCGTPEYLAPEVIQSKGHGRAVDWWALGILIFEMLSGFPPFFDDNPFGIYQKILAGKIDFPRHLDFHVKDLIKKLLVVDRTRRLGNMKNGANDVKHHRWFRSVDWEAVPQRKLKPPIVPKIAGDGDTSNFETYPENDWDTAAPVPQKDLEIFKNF
Sequence of AURKC (human) (Q9UQB9 whole entry, looked up): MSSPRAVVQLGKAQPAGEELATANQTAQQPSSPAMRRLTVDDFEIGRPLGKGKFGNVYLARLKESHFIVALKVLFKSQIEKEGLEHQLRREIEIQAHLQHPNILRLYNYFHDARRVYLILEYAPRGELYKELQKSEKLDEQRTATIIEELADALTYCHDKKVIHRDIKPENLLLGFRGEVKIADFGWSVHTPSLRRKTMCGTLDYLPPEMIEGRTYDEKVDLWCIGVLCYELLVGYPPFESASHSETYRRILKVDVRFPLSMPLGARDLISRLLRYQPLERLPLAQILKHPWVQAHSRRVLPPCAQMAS

Structure (SMILES)	inhibition (RPS6KA3 KD1 (human))	inhibition (SGK3 (human))	inhibition (AURKB (human))	inhibition (PRKACA (mouse))	inhibition (PRKACB (human))	inhibition (RPS6KA4 KD1 (human))	inhibition (STK32B (human))	inhibition (PRKCH (human))	inhibition (PRKCQ (human))	inhibition (PKN1 (human))	inhibition (PRKCE (human))	inhibition (PRKCI (human))	inhibition (RPS6KA1 KD1 (human))	inhibition (PRKX (human))	inhibition (RPS6KA2 KD1 (human))	inhibition (DMPK (human))	inhibition (AURKA (human))	inhibition (RPS6KA5 KD1 (human))	inhibition (SGK2 (human))	inhibition (PRKCG (human))	also measured
O=c1cc(N2CCOCC2)nc2c3ccccc3ccn12	0%	0%	0%	0%	0%	0%	0%	0%	0%	0%	6%	0%	0%	0%	0%	0%	0%	0%	0%	0%	inhibition (AURKC (human)): 5%; inhibition (PRKCD (human)): 0%; inhibition (AKT2 (human)): 0%; inhibition (RPS6KA6 KD1 (human)): 0%; inhibition (PDPK1 (human)): 0%; inhibition (AKT3 (human)): 0%; inhibition (AKT1 (human)): 0%
CN1CCC(Nc2ncc3ncnc(Nc4ccc(F)c(Cl)c4)c3n2)CC1	0%	0%	8%	6%	0%	0%	0%	0%	0%	3%	0%	0%	0%	6%	4%	3%	0%	0%	0%	0%	inhibition (AURKC (human)): 10%; inhibition (PRKCD (human)): 0%; inhibition (AKT2 (human)): 0%; inhibition (RPS6KA6 KD1 (human)): 0%; inhibition (PDPK1 (human)): 0%; inhibition (AKT3 (human)): 0%; inhibition (AKT1 (human)): 0%
Cn1cc(C2=C(c3ccc(Cl)cc3Cl)C(=O)NC2=O)c2ccccc21	0%	0%	0%	5%	8%	0%	0%	0%	3%	0%	3%	11%	21%	1%	1%	8%	3%	0%	0%	2%	inhibition (AURKC (human)): 0%; inhibition (PRKCD (human)): 5%; inhibition (AKT2 (human)): 0%; inhibition (RPS6KA6 KD1 (human)): 0%; inhibition (PDPK1 (human)): 0%; inhibition (AKT3 (human)): 0%; inhibition (AKT1 (human)): 3%
COc1cc2ncnc(Nc3ccc(Cl)cc3F)c2cc1OC	8%	7%	9%	2%	4%	2%	14%	11%	7%	1%	2%	0%	0%	7%	0%	0%	7%	0%	7%	2%	inhibition (AURKC (human)): 18%; inhibition (PRKCD (human)): 0%; inhibition (AKT2 (human)): 0%; inhibition (RPS6KA6 KD1 (human)): 0%; inhibition (PDPK1 (human)): 0%; inhibition (AKT3 (human)): 0%; inhibition (AKT1 (human)): 0%
N#CC(=C(\N)Sc1ccccc1N)/C(C#N)=C(/N)Sc1ccccc1N	0%	0%	0%	0%	0%	0%	0%	0%	0%	0%	0%	3%	0%	0%	0%	0%	0%	0%	0%	0%	inhibition (AURKC (human)): 0%; inhibition (PRKCD (human)): 0%; inhibition (AKT2 (human)): 0%; inhibition (RPS6KA6 KD1 (human)): 0%; inhibition (PDPK1 (human)): 0%; inhibition (AKT3 (human)): 0%; inhibition (AKT1 (human)): 0%
CS(=O)(=O)CCNCc1nc(-c2ccc3ncnc(Nc4ccc(OCc5cccc(F)c5)c(Cl)c4)c3c2)cs1	0%	6%	0%	8%	5%	6%	9%	6%	0%	0%	14%	0%	14%	7%	0%	5%	13%	0%	11%	10%	inhibition (AURKC (human)): 21%; inhibition (PRKCD (human)): 0%; inhibition (AKT2 (human)): 0%; inhibition (RPS6KA6 KD1 (human)): 5%; inhibition (PDPK1 (human)): 0%; inhibition (AKT3 (human)): 0%; inhibition (AKT1 (human)): 16%
